This note sets out measurements from PubChem BioAssay (NCI).

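Exposure lasted 48 hours, with cells grown in 96-well plates and compounds tested at five concentrations. GI50 = concentration required for 50% inhibition of growth. TGI is the concentration that stops growth completely.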

Test systems include OVCAR-8 ovarian; HOP-62 NSCLC; U251 CNS; NCI-H226 lung; EKVX NSCLC; LOX IMVI melanoma; HCT-116 colon; TK-10 renal.
Common to all, as to test: NCI anticancer screen, dose series, 48 h

With `COc1ccc(-c2ncnc3c2ncn3CC#CCCl)cc1`, the GI50 is 11.6 µM in the experiment on OVCAR-8 ovarian; 1.79 µM in the experiment on HOP-62 NSCLC; 1.96 µM in the experiment on U251 CNS; 4.45 µM in the experiment with NCI-H226 lung; 12.8 µM in the experiment with EKVX NSCLC; 1.77 µM with LOX IMVI melanoma. In addition, the GI50 in the experiment on HCT-116 colon was 3.5 µM; in the experiment on TK-10 renal it was 7.29 µM. Further, the TGI with OVCAR-8 ovarian was above 100 µM; with HOP-62 NSCLC, 3.31 µM; in the experiment with U251 CNS it was 4.85 µM; in the experiment on NCI-H226 lung, 26.2 µM; in the experiment with EKVX NSCLC it was 29.6 µM; in the experiment with LOX IMVI melanoma it was 3.52 µM. The TGI turned out to be 14.7 µM in the experiment with HCT-116 colon and 24 µM in the experiment with TK-10 renal.
Turning to `COC(=O)/C=C1/SC(=Nc2cccc(Cl)c2)N(CCc2c[nH]c3ccc(O)cc23)C1=O`, the GI50 was 2.32 µM in the experiment with OVCAR-8 ovarian; 1.9 µM in the experiment with HOP-62 NSCLC; 1.76 µM with U251 CNS; 1.65 µM in the experiment on NCI-H226 lung; 2.19 µM in the experiment with EKVX NSCLC; 1.52 µM with LOX IMVI melanoma. The GI50 is 1.18 µM in the experiment on HCT-116 colon and 2.29 µM with TK-10 renal. In addition, the TGI in the experiment on OVCAR-8 ovarian is 6.72 µM; in the experiment with HOP-62 NSCLC, 3.93 µM; in the experiment on U251 CNS, 3.51 µM; with NCI-H226 lung it was 3.08 µM; in the experiment on EKVX NSCLC it was 5.51 µM; in the experiment with LOX IMVI melanoma it was 2.98 µM. Further, the values for the TGI with HCT-116 colon and in the experiment on TK-10 renal were 2.71 µM and 5.65 µM, respectively.
Turning to `CC1(C)N=C(N)N=C(N)N1c1ccc(CNC(=O)Nc2ccc(S(=O)(=O)F)c(Cl)c2)c(Cl)c1`, the GI50 in the experiment with OVCAR-8 ovarian is 2.08 µM; in the experiment on HOP-62 NSCLC, 9.81 µM; in the experiment on U251 CNS it was 0.51 µM; with NCI-H226 lung, 13.7 µM; with LOX IMVI melanoma, 0.396 µM; in the experiment on HCT-116 colon, 0.379 µM. The GI50 in the experiment with TK-10 renal was 8.39 µM. Also, the TGI in the experiment with OVCAR-8 ovarian, in the experiment with HOP-62 NSCLC, with U251 CNS, in the experiment on NCI-H226 lung, in the experiment with LOX IMVI melanoma and with HCT-116 colon was above 100 µM in each case. The TGI in the experiment with TK-10 renal was above 100 µM.
For the compound `CCSC[C@@H]1C[C@](O)(c2ccc(Cl)cc2)[C@@H](c2ccc(Cl)cc2)O1`, the GI50 is 17.4 µM in the experiment with OVCAR-8 ovarian; 16.7 µM with HOP-62 NSCLC; 18.3 µM in the experiment on U251 CNS; 17.8 µM in the experiment with NCI-H226 lung; 17.3 µM with EKVX NSCLC; 18.5 µM in the experiment on LOX IMVI melanoma. Also, the values for the GI50 with HCT-116 colon and with TK-10 renal were 12.6 µM and 17.8 µM, respectively. Moreover, the TGI with OVCAR-8 ovarian stood at 45 µM; in the experiment on HOP-62 NSCLC, 30.7 µM; with U251 CNS it was 36.2 µM; with NCI-H226 lung it was 37.3 µM; in the experiment with EKVX NSCLC it was 40.7 µM; in the experiment on LOX IMVI melanoma, 40.7 µM. Moreover, the figures for the TGI with HCT-116 colon and with TK-10 renal were 25.1 µM and 36.3 µM, respectively.
On to `Cc1ccc(S(=O)(=O)ON2C(=O)c3cccc4cc([N+](=O)[O-])cc(c34)C2=O)cc1`, for which the TGI in the experiment on OVCAR-8 ovarian, in the experiment on HOP-62 NSCLC, in the experiment with U251 CNS, with NCI-H226 lung, in the experiment on EKVX NSCLC and in the experiment on LOX IMVI melanoma was above 100 µM throughout. Besides, the TGI in the experiment on HCT-116 colon and in the experiment on TK-10 renal was above 100 µM in each case.
As to `COc1cc(-c2nn(-c3cccc(NC(=O)Nc4ccc(Cl)c(C(F)(F)F)c4)c3)cc2-c2ccncc2)ccc1Cl`, the GI50 in the experiment on OVCAR-8 ovarian is 1.05 µM; in the experiment with HOP-62 NSCLC, 1.31 µM; with U251 CNS, 0.985 µM; in the experiment with NCI-H226 lung, 1.82 µM; in the experiment on LOX IMVI melanoma, 1.17 µM; in the experiment on HCT-116 colon it was 1.17 µM. Moreover, the GI50 in the experiment on TK-10 renal is 1.51 µM. Moreover, the TGI with OVCAR-8 ovarian was 5.87 µM; in the experiment on HOP-62 NSCLC, 6.49 µM; in the experiment with U251 CNS it was 4.18 µM; in the experiment on NCI-H226 lung, above 32.5 µM; in the experiment with LOX IMVI melanoma it was 4.61 µM; in the experiment with HCT-116 colon it was 4.56 µM. The compound also displayed a TGI in the experiment with TK-10 renal of 13.5 µM.
`CCOC(=O)c1[nH]c2cc(Cl)ccc2c1[C@@H](C(=O)NC(C)(C)C)N(CC)C(=O)CCCCC#Cc1cccc2c1CN(C1CCC(=O)NC1=O)C2=O` (stereo not given in full): the GI50 was below 0.01 µM in the experiment on OVCAR-8 ovarian; below 0.01 µM with HOP-62 NSCLC; 1.84 µM in the experiment with U251 CNS; 0.0343 µM in the experiment on NCI-H226 lung; 1.39 µM in the experiment with EKVX NSCLC; 3.18 µM in the experiment with LOX IMVI melanoma. In addition, the GI50 is 2.55 µM with HCT-116 colon and 2.65 µM with TK-10 renal. For the same compound, the TGI with OVCAR-8 ovarian is 35 µM; in the experiment on HOP-62 NSCLC, 6.81 µM; in the experiment with U251 CNS it was 18.1 µM; with EKVX NSCLC, 45.5 µM; in the experiment with LOX IMVI melanoma it was above 86.5 µM; in the experiment on HCT-116 colon, 18.5 µM. Moreover, the TGI in the experiment on TK-10 renal is 16.1 µM.
On to `CSc1cc([C@@H]2C[C@H]2c2ccc(Cl)cc2)on1`, for which the GI50 was 12.3 µM with OVCAR-8 ovarian; 13.8 µM in the experiment with HOP-62 NSCLC; 9.24 µM in the experiment with U251 CNS; 11.4 µM in the experiment with NCI-H226 lung; 29.8 µM in the experiment on EKVX NSCLC; 3.99 µM in the experiment on LOX IMVI melanoma. The GI50 is 17.4 µM in the experiment with HCT-116 colon and 12.5 µM in the experiment on TK-10 renal. Besides, the TGI came out at 46.1 µM with OVCAR-8 ovarian; 41.8 µM in the experiment with HOP-62 NSCLC; 32.3 µM in the experiment on U251 CNS; 36.8 µM in the experiment with NCI-H226 lung; 55.8 µM in the experiment with EKVX NSCLC; 19.9 µM with LOX IMVI melanoma. In addition, the TGI in the experiment on HCT-116 colon was determined as 67.8 µM; in the experiment with TK-10 renal, 31.5 µM.
As for `COc1ccc2c(c1)c(-c1nc(-c3cn(C)c4ccncc34)cs1)cn2C`, the GI50 in the experiment on HOP-62 NSCLC is 1.9 µM; in the experiment on U251 CNS, 1.85 µM; in the experiment on NCI-H226 lung, 1.83 µM; in the experiment on EKVX NSCLC it was 1.77 µM; with TK-10 renal, 1.49 µM. The TGI was 3.62 µM with HOP-62 NSCLC; 3.4 µM in the experiment with U251 CNS; 3.75 µM with NCI-H226 lung; 3.56 µM with EKVX NSCLC; 3.06 µM in the experiment on TK-10 renal.
